According to PMC5412877, “Discovery of a PCAF Bromodomain Chemical Probe” (Angewandte Chemie (International Ed. in English), 2016):
“Also recorded” adds a separate entry of the source. Where two headings read alike, the source gives them in different places. Marks after values point to notes of the source that are not given here.

What was measured:
[1] = molecular target: T1, PCAF‐Brd histone H3.3 interaction (Homo sapiens, UniProt Q92831); assay: nanoBRET target engagement assay, PCAF-Brd / histone H3.3 in HEK293 cells; type: cell-based; conditions: live HEK293 cells; compounds 5 μM, 18 h
T1 construct: NanoLuciferase fusion of the isolated bromodomain of PCAF; expressed in transfected cells; host or cells: HEK293
T1 sequence (Q92831 723-827 limits assumed): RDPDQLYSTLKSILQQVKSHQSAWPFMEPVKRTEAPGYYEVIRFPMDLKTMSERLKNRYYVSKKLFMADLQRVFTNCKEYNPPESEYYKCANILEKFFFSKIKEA
Method: page 48: NanoLuciferase Bioluminescent Resonance Energy Transfer (NanoBRET) Assay Methods HEK293 cell (8 x 105) were plated in each well of a 6-well plate and co-transfected with Histone H3.3- HaloTag (NM_002107) and a NanoLuciferase fusion of the isolated bromodomain of PCAF. Twenty hours post-transfection, cells were collected, washed with PBS, and exchanged into media containing phenol red-free DMEM and 4% FBS in the absence (control sample) or the presence (experimental sample) of 100 nM NanoBRET 618 fluorescent ligand (Promega). Cell density was adjusted to 2 x 10^5 cells/ml and then re-plated in a 96-well assay white plate (Corning Costar #3917). […] Readings were performed within 5 minutes using a Glo-MAX Discover instrument (Promega) equipped with 450/8 nm bandpass and 600 nm longpass filters with a 0.3 sec reading setting. A corrected BRET ratio was calculated and is defined as the ratio of the emission at 600 nm/450 nm for experimental samples (i.e. those treated with NanoBRET fluorescent ligand) subtracted by and the emission at 600 nm/450 nm for control samples (not treated with NanoBRET fluorescent ligand). BRET ratios are expressed as milliBRET units (mBU), where 1 mBU corresponds to the corrected BRET ratio multiplied by 1000. […] Compounds were analysed by LC-MS for loss of compound at 0, 5, 15, 30 and 45 minute time points. […]

[2] = Metabolic stability in mouse liver microsomes; type: in vitro ADME
Method: (§1) In vitro Metabolism Studies
(§2) Metabolic stability studies were carried out exposing nominated compounds to samples of liver microsomes. Compounds were analysed by LC-MS for loss of compound at 0, 5, 15, 30 and 45 minute time points. The rate of metabolic degradation of compounds was used to calculate CLint, SE CLint, t1/2 (summarised in supplemental table 2.)
(§3) Supplemental Table 4. In vitro metabolic stability of compounds DL-45/DL-Moses and 39 Compound Metbolic Stability (Human) Metbolic Stability (Mouse) […]

[3] = Metabolic stability in human liver microsomes; type: in vitro ADME
Method: as §1, §2, §3

[4] = molecular target: T2, GST-PCAFBRD (Homo sapiens, UniProt Q92831); assay: HTRF assay, displacement of biotinylated compound 46 from GST-PCAF Brd; type: binding
T2 construct: Final assay concentrations: GST-PCAFBRD (20 nM)
T2 sequence (Q92831 723-827 limits assumed): T1 sequence (Q92831 723-827 limits assumed)
Method: (§4) obtained from 5 healthy donors. PBMC were cultured either with D-Moses or L-Moses at concentrations of 0.1, 1 and 10 μM or with a control (DMSO) for 24 hours. Viability of PBMC were then checked using LIVE/DEAD Fixable Aqua Dead Cell Stain Kit (ThermoFisher Scientific).
(§5) High Throughput Time Resolved Fluorescence Assay (HTRF)
(§6) HTRF assay was carried out using a Cisbio Epigenous kit B (62BDBPEH) using the standard assay protocol with GST-PCAFBRD.[3] Final assay concentrations: GST-PCAFBRD (20 nM), SA-XL665 (62.5 nM), α-GST donor (62.5 nM), compound 46 (500 nM). Ki was calculated using the Cheng-Prussof equation […]
(§7) Recombinant PfGCN5 (bromodomain only) was expressed in E. coli and purified using a previously described system. The protein crystallized with the compound L-45 at 293 K in 0.1M CaCl2, 30% PEG 8k, 0.2 M NH4SO4. The concentrations of the protein sample and the compound were 10 mg/ml […]
(§8) X-ray diffraction data for the crystal was collected at 100 K at the beamline 08ID-1 of the Canadian Macromolecular Crystallography Facility. The dataset was processed using the HKL-2000 suite, and the structure solved using Phaser, a component of the CCP4 suite with molecular replacement model 4QNS. […]

[5] = test system: peripheral blood mononuclear cells (PBMC); assay: Cytotoxicity in peripheral blood mononuclear cells (PBMC); type: cell-based; conditions: 10 μM for 24 hours
Method: as §4, §5, §6, §7, §8

[6] = molecular target: T3, GCN5L2 (Homo sapiens, UniProt Q92830); assay: Differential scanning fluorimetry (DSF), GCN5 (GCN5L2) Brd; type: binding; conditions: compound 10 μM
T3 construct: made in house
T3 sequence (Q92830 728-832 limits assumed): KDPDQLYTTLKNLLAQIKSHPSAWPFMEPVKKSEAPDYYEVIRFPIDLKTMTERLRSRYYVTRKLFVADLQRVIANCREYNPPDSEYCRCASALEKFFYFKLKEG
Method: (§9) Protein Expression and Purification
(§10) Human bromodomains were cloned, expressed and purified as previously described.[1]
(§11) Differential Scanning Fluorimetry (DSF)
(§12) Thermal melting points were recorded using an Mx3005p Real Time PCR Machine (Stratagene).
(§13) Subject proteins were buffered in 10 mM HEPES at pH 7.5, 500 mM NaCl and assayed in a 96-well […]
(§14) plate at a final concentration of 2 μM in 20 μL volume. Compounds were then added to a final […]
(§15) concentration of 10 μM. SPYRO Orange (Molecular Probes) was used as a fluorescent probe at a […]
(§16) dilution of 1:1000. Excitation and emission filters for the SPYRO-Orange dye were set to 465 nm and […]
(§17) 590 nm, respectively. The temperature was raised with a step of 3 °C/min from 25 °C to 96 °C and […]
(§18) fluorescence readings were taken at each interval. Data was analysed as previously described.[2]
(§19) Bromodomain affinity selectivity panel of (S)-11
(§20) Supplemental Figure 1. DSF Selectivity panel of (S)-11 against 48 human Bromodomains. […]
(§21) ┼Mean ΔTm ± SEM (number of measurements= 2). Compound concentration: 10 μM […]
(§22) (1 picture or pasted object on this page, not shown here)

[7] = Permeability in MDCK-MDR1 cells; type: in vitro ADME; conditions: dog, direction not given
[8] = molecular target: T4, HGCN5 Brd (Homo sapiens, UniProt Q92830); assay: Isothermal titration calorimetry (ITC), human GCN5 Brd; type: binding
T4 construct: made in house
T4 sequence (Q92830 728-832 limits assumed): T3 sequence (Q92830 728-832 limits assumed)
Method: (§23) Isothermal Titration Calorimetry (ITC)
(§24) Experiments were carried out on a Nano-ITC Standard Volume Instrument (TA Instruments). All experiments were carried out at 25 °C in 20 mM HEPES pH 7.5, 150 mM NaCl, 0.5 mM TCEP and 5% glycerol. Protein solutions were buffer exchanged by gel filtration. The titrations were conducted using an initial injection of 2 μL followed by 32 injections of 8 μL. Background dilution heat was substracted from each experiment. Thermodynamic parameters were calculated using ΔG = ΔH-T ΔS = -RTlnKB , where KD = 1/KB. ΔG, ΔH and ΔS are changes in free energy, enathalpy and entropy resepectively. Independent single site binding models were employed in data analysis.
Supplemental Figure 2. ITC trace of L-Moses and PCAF Brd
(§25) Supplemental Figure 3. ITC trace of D-Moses and PCAF Brd […]

[9] = molecular target: T5, PCAF Brd (Homo sapiens, UniProt Q92831); assay: Isothermal titration calorimetry (ITC), PCAF Brd; type: binding
T5 construct: Human bromodomains were cloned, expressed and purified as previously described; made in house
T5 sequence (Q92831 723-827 limits assumed): T1 sequence (Q92831 723-827 limits assumed)
Method: as §23, §24, §25

[10] = test system: PCAF Brd; conditions: cited from earlier work
[11] = test system: HIV‐1; conditions: read-out: HIV-1 EC50; cited from earlier work
[12] = molecular target: T5, PCAF Brd; assay: Differential scanning fluorimetry (DSF), PCAF Brd; type: binding; conditions: for ΔT m [°C] PCAF (DSF): compound concentration 10 μM
Method: as §9, §10, §11, §12, §13, §14, §15, §16, §17, §18, §19, §20, §21, §22

[13] = test system: 48 human Brds; assay: DSF selectivity panel of 48 human bromodomains; type: binding; conditions: compound 10 μM
[14] = Kinetic solubility; type: physicochemical; conditions: kinetic from dmso stock
[15] = test system: MDCK‐MDR1 cells; assay: Permeability in MDCK-MDR1 cells; type: in vitro ADME
[16] = molecular target: T5, PCAF Brd; assay: Differential scanning fluorimetry (DSF), PCAF Brd; type: binding; conditions: compound concentration 100 μM
[17] = test system: PCAF; set-up: method as in earlier work; conditions: read-out: PCAF AlphaLISA IC50; cited from earlier work
[18] = Table 2, read-out: K D (nM) (ITC) PCAF Brd
[19] = Supplemental Table 3, compound concentration 30 μM, protein concentration 280-320 μM, read-out: PCAF KD (μM) (ITC)
[20] = read-out: GCN5L2 ΔTm (°C) (DSF)
[21] = Table 1, read-out: K D [μM] (ITC) PCAF Brd

With `Cc1nnc2c3ccccc3c(N[C@@H](C)[C@H](c3ccccc3)N(C)C)nn12` [L‐45] the “displacement of PCAF‐Brd from H3.3 in nanoBRET assay” value [1] was “single digit μM concentration”, the half-life ([2]; mouse, liver microsomes, read-out: t1/2 mouse liver microsomes) was 38 min and the half-life ([3]; human, liver microsomes, read-out: t1/2 human liver microsomes) was 40 min. The Ki [4] was 0.047 µM, the “cytotoxicity in PBMC” value [5] was “no observable cytotoxicity” and the “GCN5L2 ΔTm (°C) (DSF)” value ([6]; 10 µM) was “+3.6 °C”. The Papp ([7]; MDCK-MDR1, first of 59/70, read-out: MDCK-MDR1 permeability, first value of the pair) was 590 nm/s, the Papp ([7]; MDCK-MDR1, second of 59/70, read-out: MDCK-MDR1 permeability, second value of the pair) was 700 nm/s and the Kd [8] was 0.55 µM. It also gave a Kd [9, 18] of 126 ± 15 nM.
In the case of `NCCCNCc1ccc(NCCCN)[n+]([O-])c1` [Compound 2], the IC50 [10] is listed as 0.93 µM and the EC50 [11] is listed as 11.5 µM.
With `Cc1nnc2c3ccccc3c(NC(C)C(c3ccccc3)N(C)C)nn12` (centres unmarked) [D‐45] the “displacement of PCAF‐Brd from H3.3 in nanoBRET assay” value [1] was “no effect”, the Kd [9, 19] was over 30000 nM and the “K D (nM) (ITC) PCAF Brd” value ([9]; Table 2) was “no observable binding; also recorded: Inactive”.
For `Cc1nnc2c3ccccc3c(NCC(NCCCCNC(=O)CCOCCOCCOCCOCCNC(=O)CCCCC3SCC4NC(=O)NC43)c3ccccc3)nn12` (centres unmarked) [compound 46, reference compound], the Kd ([4]; GST-PCAF Brd, read-out: KD of compound 46 used for Cheng-Prusoff) was 0.4 µM.
In the case of `Cc1nnc2c3ccccc3c(N[C@@H](C)CN(C)C)nn12` [(S)‐11], the ΔTm at 10 µM ([12]; Supplemental Table 1, number of measurements 2, compound 10 μM, read-out: PCAF ΔTm (°C), mean ± SEM) is reported as 5.4 °C, the “ΔT m [°C] PCAF (DSF)” value [12] is reported as 7.4 °C and the “selectivity in DSF panel of 48 human Brds” value [13] is reported as “no observable activity against other Brds”. It also gave a ΔTm at 10 µM ([6]; Supplemental Table 1, number of measurements 2, read-out: GCN5L2 ΔTm (°C), mean ± SEM) of 3.7 °C, a ΔTm at 10 µM [6, 20] of 4 °C and a Kd [9, 19] of 284 nM. It also gave a Kd [9, 21] of 280 ± 29 nM.
With `Cc1nnc2c3ccccc3c(N[C@@H](C)[C@H](c3ccccc3)N(C)C)nn12` (relative stereo) [Compound 45] the “ΔT m [°C] PCAF (DSF)” value [12] was 7.9 °C, the microsomal CLint ([2]; mouse liver microsomes, n 5, read-out: CLint (μL/min/mg protein) mouse) was 37 µL/min/mg and the microsomal CLint ([3]; human liver microsomes, n 5, read-out: CLint (μL/min/mg protein) human) was 35 µL/min/mg. For the same molecule, the ΔTm at 10 µM [6, 20] was 5 °C, the solubility kinetic [14] was over 200 µM and the “efflux in MDCK‐MDR1 cells” value [15] was “low efflux”. The “permeability in MDCK‐MDR1 cells” value [15] was “good” and the Kd [9, 18] was 168 ± 27 nM.
For `Cc1nnc2c3ccccc3c(NCCN(C)C)nn12` [Compound 7], the Kd [9, 19] was 7980 nM, the Kd [9, 21] was 8000 ± 650 nM and the “ΔT m [°C] PCAF (DSF)” value [16] was 8.5^[b] °C.
In the case of `CC(C)C[C@H]1C[C@@H](Nc2cnn(C)c(=O)c2Cl)CN(C)C1` [Compound 3], the IC50 [17] is given as 0.013 µM.
